Columns and labels:
[1] = test system: HL60 cells; test: MTT assay, anti-cancer activity on HL60 cells in vitro; assay type: cell-based, human; set-up: Cell Growth: unit not given here; details: for IC50: MTT, 72 hours, read-out: IC50 in HL60 Cell; for Cell Growth: HL60, 72 hours; for anti-cancer activity (IC50) compared with cisplatin, in words: HL60 cell
Method: (§1) In order to examine anti-cancer activity of Pt(IV) complexes according to the present invention, MTT, i.e., [3-(4,5-dimethylthiazol-2-yl)-2,5-diphenyltetrazolium bromide] assay was performed on HL60 and L1210 which are leukemic cell of human and mice, respectively.
(§2) MTT assay is a quantitative color analysis based on that mitochondrial dehydrogenase, one of cell enzymes, changes yellow water-soluble MTT into deep-blue water-insoluble formazan, and the amount of the generated formazan is proportioned to active cell numbers.^122-124)
(§3) HL60 and L1210, suspended leukemic cells of humans and mice, respectively are used as cancer cells for determining the anti-cancer activity of the Pt (IV) complex according to the above Examples. They were obtained by cultivating the frozen cells alloted from Korean Cell Line Bank.
(§4) Cells were subject to subculture at the interval of 2-3 days at 37° C. in the presence of 5% CO2 in RPMI 1640 culture medium controlled to contain 1% penicillin-streptomycin (10,000 unit/ml) and 10% FBS, with keeping the cell number between 2×10^5/ml-5×10^5/ml.
(§5) Pt (IV) complexes prepared by the Examples of the present invention were used as pharmaceutical compounds. Among them, a water-soluble compound was used as it was, and a water-insoluble compound was used after dissolving in DMSO or 95% ethanol, adding PBS to be 2 mM concentarion, filtering with 0.2μ syringe filter to be sterile state and performing serial-dilution with a culture medium to control predetermined concentrations. The final concentration of DMSO or 95% ethanol in cell culture medium was controlled to be below 0.1%.
HL60 and L1210 cells were put into 96-well plate in the amount of 10^4/well and then stabilized for a half hour at 37° C. in the presence of 5% CO2. […]
(§6) After cultivating HL60 cell at 37° C. in the presence of 5% CO2 for 72 hours and L1210 for 48 hours, MTT reagent (2 mg/ml) was added 50 μl/well, and an additional cultivation was performed at 37° C. in the presence of 5% CO2 for 4 hours. Then, after centrifuging the resultant at 2000 rpm for 5 minites, the supernatant was removed by 170 μl/well.
(§7) Then, after adding DMSO 150 μl/well, the resultant was laid at 40° C. for 30 minutes and stirred for 3 minutes. Then, absorption test using ELISA reader was performed at 570 nm.
(§8) For calibration, a blank test was performed on the same 96-well plate under the same condition.
(§9) The above-described experiment was performed on more than 3 wells under the same condition with different concentration, and the same experiment was repeated over 3 times.

[2] = test system: L1210 cells; test: MTT assay, anti-cancer activity on L1210 cells in vitro; assay type: cell-based, mice; set-up: Cell Growth: unit not given here; details: for IC50: MTT, 48 hours, read-out: IC50 in L1210 Cell; for Cell Growth: L1210, 48 hours; for anti-cancer activity (IC50) compared with cisplatin, in words: L1210 cell
Method: as §1, §2, §3, §4, §5
HL60 and L1210 cells were put into 96-well plate in the amount of 10^4/well and then stabilized for a half hour at 37° C. in the presence of 5% CO2.
as §6, §7, §8, §9

[3] = test system: proximal renal tubule cells; test: Nephrotoxicity test, electron microscopic findings (TEM) of proximal renal tubule; assay type: in vivo, mice
Method: In order to observe the ultra-structural changes of proximal renal tubule cells, a part of renal cortex of kidney was finely cut in the size of 1 mm^3, pre-fixed with 2% glutaraldehyde-2.5% paraformaldehyde solution, which is prepared with Millonig's phosphate buffer (pH 7.2) at 4° C. for 2-4 hours, and post-fixed with 1% osmium tetroxide for 2 hours, which is diluted with the same buffer solution. Then, after dehydrating the specimen according to ethanol-acetone concentration difference and embeding in Epon 812, it was made to be 2-5 μm thickness in thin section using ultramicrotome and temporarily stained with methylene blue to determine a proper site. Then, it was prepared tobe 60-80 nm thickness of the ultra-thin section, subject to double-staining with uranyl acetate and lead citrate, and observed with TEM (transmission electron microscope; Hitachi-600, Japan).

[4] = test system: male ICR mice; test: Nephrotoxicity test, serologic analysis (BUN, creatinine, uric acid) after i.p. injection; assay type: in vivo; set-up: unit not given here; details: serum, dose 8x IC50 (cisplatin 7x IC50), average ± SD of 5-6 ICR mice
Method: In order to serologically analyze nephrotoxicity of various Pt complexes, after injecting each agent intraperitneally, blood was exsanguinated after 6 hours, 1 day, 3 days and 7 days, respectively. Then, serum was seperated f rom the blood to detect the values of BUN (Blood urea nitrogen), creatinine and uric acid.^133)
As an experimental animal, male ICR mice each weighing about 25 g were purchased from Korean Experimental Animal Center. The experimental animals were bred in SPF(Specific Pathogen Free) room in Medical School of HanYang University, and food (purchased from SamYang) and water were supplied unrestrictedly.
The experimental animals were divided into a normal control group, a control group and an experimental group, and the experimental group was again divided into a cisplatin dispensing group, a 7(Ac)Cl treated group, a 7(TF)Cl treated group, a 7(Ac)M treated group, a 7(TF)M treated group and a 7FMN treated group.
Each groups comprised 20-22 mice, and each group was again divided into a 6 hour-treating group, a 1 day-treating group, a 3 day-treating group and a 7 day-treating group, which contains 5-6 mice, respectively.
First, a predetermined amount of agent was dissolved in DMSO or ethanol, and then PBS was added thereto to make the total volume be 6.6 ml. At this time, the content of DMSO or ethanol was controlled to be below 5%.
The agent dissolved in PBS was filtered using 0.2μ syringe filter, sterilized, and injected into intraperitoneally. Then, after 6 hours, 1 day, 3 days and 7 days, exsanguination was performed.
After seperating serum by centrifuging the blood exsanguinated from mice at 4,500 rpm for 15 minutes, the serum was kept at the temperature −20° C. BUN (Blood urea nitrogen), creatinine and uric acid were detected using a biochemical automatic analyzing apparatus (Olympus reply, Japan) and average and standard deviation were calculated from the obtained data.
Control group was dissolved in PBS and injected in dose of 6.6 ml/Kg.

[5] = 1 Day after single i.p. injection
[6] = 7 Day after single i.p. injection
[7] = 6 hour after single i.p. injection
[8] = 3 day after single i.p. injection

SMILES	IC50 [1] [µM]	IC50 [2] [µM]	anti-cancer activity (IC50) compared with cisplatin, in words [1]	anti-cancer activity (IC50) compared with cisplatin, in words [2]	BUN after the 1st time injection [4, 5]	Uric acid after the 1st time injection [4, 5]	BUN after the 1st time injection [4, 6]	Uric acid after the 1st time injection [4, 6]	BUN after the 1st time injection [4, 7]	Uric acid after the 1st time injection [4, 7]	BUN after the 1st time injection [4, 8]	Uric acid after the 1st time injection [4, 8]	further results
NCCN.[Cl][Pt][Cl] [5 Cl, cis-dichloro,ethylenediamine Pt(II) complex]	11.7	11											
[Cl][Pt]1([Cl])[NH]CCC[NH]1 [6 Cl, cis-dichloro-1,3-propanediamine Pt(II) complex]	16.1	19.3											
[Cl][Pt]1([Cl])[NH]CCCC[NH]1 [7 Cl, cis-dichloro-1,4-butanediamine Pt(II) complex]	1.83	2.01											
O=C1CC(=O)[O][Pt]2([NH]CCCC[NH]2)[O]1 [7 Mal, malonato-1,4-butanediamine Pt(II) complex]	13.8	15											Cell Growth ([1]; 0.01 μM): 92; Cell Growth ([1]; 0.05 μM): 89; Cell Growth ([1]; 0.1 μM): 89; Cell Growth ([1]; 0.5 μM): 82.6; Cell Growth ([1]; 1 μM): 78.8; Cell Growth ([1]; 5 μM): 63.2; Cell Growth ([1]; 10 μM): 57; Cell Growth ([1]; 50 μM): 27; Cell Growth ([1]; 100 μM): 20; Cell Growth ([2]; 0.01 μM): 91; Cell Growth ([2]; 0.05 μM): 95; Cell Growth ([2]; 0.1 μM): 93; Cell Growth ([2]; 0.5 μM): 84.8; Cell Growth ([2]; 1 μM): 80.1; Cell Growth ([2]; 5 μM): 68; Cell Growth ([2]; 10 μM): 55; Cell Growth ([2]; 50 μM): 26.1; Cell Growth ([2]; 100 μM): 20.5
CC(=O)[O][Pt]1([Cl])([Cl])([O]C(C)=O)[NH]CCCC[NH]1 [7(Ac)Cl, trans, cis-diacetato,dichloro-1,4-butanediamine Pt(IV) complex]			superior to that of cisplatin	superior to cisplatin(CDDP)	19.4 ± 3.3	1.92 ± 0.4	22.1 ± 3.4	1.74 ± 0.5	29.2 ± 1.8	2.18 ± 1.0	19.2 ± 2.8	1.88 ± 0.6	nephrotoxicity compared with cisplatin (conclusion from serologic and electron microscopic analysis) ([3]; 7(Ac)Cl 6 mg/kg, 7(TF)Cl 5.3 mg/kg (8 times of IC50), cisplatin 6 mg/kg (7 times of IC50), i.p.): weaker toxicity than cisplatin; ultra-structural changes of proximal renal tubule epithelial cells (TEM) ([3]; one day after i.p. injection): cytoplasmic organelle damages
CC(=O)[O][Pt]12([O]C(C)=O)([NH]CCCC[NH]1)[O]C(=O)CC(=O)[O]2 [7(Ac)M, trans-diacetato,malonato-1,4-butanediamine Pt (IV) complex]			higher than that of cisplatin		22.0 ± 4.1	2.34 ± 1.0	21.5 ± 5.1	1.52 ± 0.3	24.0 ± 6.2	2.66 ± 0.7	22.4 ± 3.3	2.0 ± 1.5	
[OH][Pt]1([OH])([Cl])([Cl])[NH]CCCC[NH]1 [7(OH)Cl, trans, cis-dihydroxo,dichloro-1,4-butanediamine Pt(IV) complex]			lower anti-cancer activity than that of cisplatin	lower anti-cancer activity than that of cisplatin									
O=C1CC(=O)[O][Pt]2([OH])([OH])([NH]CCCC[NH]2)[O]1 [7(OH)M, trans-dihydroxo,malonato-1,4-butanediamine Pt(IV) complex]			lower anti-cancer activity than that of cisplatin	lower anti-cancer activity than that of cisplatin									
O=C1CC(=O)[O][Pt]2([O]C(=O)C(F)(F)F)([O]C(=O)C(F)(F)F)([NH]CCCC[NH]2)[O]1 [7(TF)M, trans-ditrifluoroacetato,malonato-1,4-butanediamine Pt(IV) complex]			higher than that of cisplatin		23.1 ± 4.8	1.8 ± 0.4	22.3 ± 1.7	1.96 ± 0.3	22.1 ± 3.1	2.04 ± 0.3	22.9 ± 1.7	1.82 ± 0.4	
N.N.[Cl][Pt][Cl] [CDDP, cis-Diaminedichloroplatinum(II)]	2.74												
